Where two headings read alike, the source gives them in different places.
How the values were obtained:
[1] = cited from earlier work
[2] = rat liver microsomal incubations, intrinsic clearance; format: in vitro ADME; settings: Sprague-Dawley, microsomes, pH 7.4
[3] = rat pharmacokinetics, intravenous; format: in vivo, male Sprague-Dawley rats; settings: for AUC: male, Sprague-Dawley, rat, whole blood, iv, 0.5 mg/kg
hURAT1 (SLC22A12) = target: T1, hURAT1 (SLC22A12) (Homo sapiens, UniProt Q96S37); assay: inhibition of 14C-urate uptake in oocytes expressing hURAT1; format: cell-based; settings: for IC50: hURAT1 IC50 (nM) ± SD, inhibition of 14C-urate uptake in oocytes expressing hURAT1; for fold weaker hURAT1 inhibitor than (1): IC50 compared with (1) (26 nM)
T1 sequence (Q96S37 1-553): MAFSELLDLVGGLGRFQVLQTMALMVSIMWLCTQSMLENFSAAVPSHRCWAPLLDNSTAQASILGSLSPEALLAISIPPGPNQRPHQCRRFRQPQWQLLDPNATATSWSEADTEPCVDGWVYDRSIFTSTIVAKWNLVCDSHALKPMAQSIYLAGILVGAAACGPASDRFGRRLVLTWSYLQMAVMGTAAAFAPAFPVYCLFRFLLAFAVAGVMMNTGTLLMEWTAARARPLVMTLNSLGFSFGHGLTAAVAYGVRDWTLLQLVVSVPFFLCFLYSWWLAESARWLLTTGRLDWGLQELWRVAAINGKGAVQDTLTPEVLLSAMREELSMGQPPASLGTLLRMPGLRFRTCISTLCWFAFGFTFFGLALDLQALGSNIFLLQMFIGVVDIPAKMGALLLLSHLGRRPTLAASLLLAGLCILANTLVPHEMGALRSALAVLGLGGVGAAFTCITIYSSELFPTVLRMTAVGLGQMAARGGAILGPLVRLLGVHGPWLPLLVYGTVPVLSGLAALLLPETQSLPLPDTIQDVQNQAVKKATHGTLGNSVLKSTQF

CC(C)(C)c1cccc(C(C)(C)C)c1O [2,6-di-tert-butyl-phenol]
pKa ([1]; phenol pKa values ref 11): 10.2

CCc1oc2ccccc2c1C(=O)c1cc(Br)c(O)c(Br)c1 [(1), (3,5-dibromo-4-hydroxyphenyl)(2-ethylbenzofuran-3-yl)methanone, reference compound]
microsomal CLint at 1 µM [2]: 51.3 ± 6.7 µL/min/mg | AUC [3]: 9070 ± 590 ng·h/mL | T1/2 ([3]; parent compound, orbital sinus 0.5 mg/kg, blood, n = 3 ± SD): 1.1 ± 0.1 h

CCc1oc2ccc(OC)cc2c1C(=O)c1ccc(O)cc1 [(2), (2-ethyl-5-methoxybenzofuran-3-yl)(4-hydroxyphenyl)methanone]
microsomal CLint at 1 µM [2]: 412 ± 6.4 µL/min/mg

CCc1oc2cc(OC)ccc2c1C(=O)c1cc(Br)c(O)c(Br)c1 [(3), (3,5-dibromo-4-hydroxyphenyl)(2-ethyl-6-methoxybenzofuran-3-yl)methanone]
microsomal CLint at 1 µM [2]: 207 ± 4.2 µL/min/mg | AUC [3]: 9600 ± 280 ng·h/mL

CCc1oc2cc(OC)c(Br)cc2c1C(=O)c1cc(Br)c(O)c(Br)c1 [(4), (5-bromo-2-ethyl-6-methoxybenzofuran-3-yl)(3,5-dibromo-4-hydroxyphenyl)methanone]
microsomal CLint at 1 µM [2]: 23.5 ± 10.9 µL/min/mg

CCc1oc2cc(O)ccc2c1C(=O)c1cc(Br)c(O)c(Br)c1 [(5), (3,5-dibromo-4-hydroxyphenyl)(2-ethyl-6-hydroxybenzofuran-3-yl)methanone]
microsomal CLint at 1 µM [2]: 19.7 ± 2.8 µL/min/mg | AUC [3]: 6160 ± 680 ng·h/mL

CCc1oc2ccc(OC)cc2c1C(=O)c1cc(Br)c(O)c(Br)c1 [(6), (3,5-dibromo-4-hydroxyphenyl)(2-ethyl-5-methoxybenzofuran-3-yl)methanone]
microsomal CLint at 1 µM [2]: 44.9 ± 6.6 µL/min/mg | AUC [3]: 2630 ± 250 ng·h/mL

CCc1oc2cc(Br)c(O)c(Br)c2c1C(=O)c1ccc(OC)cc1 [(7), (4,6-dibromo-2-ethyl-5-hydroxybenzofuran-3-yl)(4-methoxyphenyl)methanone]
microsomal CLint at 1 µM [2]: 286.8 ± 0.9 µL/min/mg

CCc1oc2ccc(O)cc2c1C(=O)c1cc(Br)c(O)c(Br)c1 [(8), (3,5-dibromo-4-hydroxyphenyl)(2-ethyl-5-hydroxybenzofuran-3-yl)methanone]
microsomal CLint at 1 µM [2]: 52 ± 0.1 µL/min/mg | AUC [3]: 940 ± 80 ng·h/mL

CCc1oc2ccc(F)cc2c1C(=O)c1cc(Br)c(O)c(Br)c1 [(9), (3,5-dibromo-4-hydroxyphenyl)(2-ethyl-5-fluorobenzofuran-3-yl)methanone]
microsomal CLint at 1 µM [2]: 142 ± 5.5 µL/min/mg | AUC [3]: 5260 ± 810 ng·h/mL

CCc1oc2ccccc2c1C(=O)c1ccc(O)c(F)c1 [(10), (2-ethylbenzofuran-3-yl)(3-fluoro-4-hydroxyphenyl)methanone]
IC50 (hURAT1 (SLC22A12)): 2410 ± 90 nM

CCc1oc2ccccc2c1C(=O)c1ccc(O)c(Cl)c1 [(11), (3-chloro-4-hydroxyphenyl)(2-ethylbenzofuran-3-yl)methanone]
IC50 (hURAT1 (SLC22A12)): 874 ± 56 nM

CCc1oc2ccccc2c1C(=O)c1ccc(O)c(Br)c1 [(12), (3-bromo-4-hydroxyphenyl)(2-ethylbenzofuran-3-yl)methanone]
IC50 (hURAT1 (SLC22A12)): 814 ± 160 nM

CCc1oc2ccccc2c1C(=O)c1ccc(O)c(I)c1 [(13), (2-ethylbenzofuran-3-yl)(4-hydroxy-3-iodophenyl)methanone]
IC50 (hURAT1 (SLC22A12)): 1490 ± 80 nM

CCc1oc2ccccc2c1C(=O)c1cc(C)c(O)c(C)c1 [(15), (2-ethylbenzofuran-3-yl)(4-hydroxy-3,5-dimethylphenyl)methanone]
IC50 (hURAT1 (SLC22A12)): 7540 ± 60 nM

CCc1oc2ccccc2c1C(=O)c1cc(Br)c(OC)c(Br)c1 [(16), (3,5-dibromo-4-methoxyphenyl)(2-ethylbenzofuran-3-yl)methanone]
fold weaker hURAT1 inhibitor than (1) (hURAT1 (SLC22A12)): ~ 47 fold | IC50 (hURAT1 (SLC22A12)): 1220 ± 110 nM

CCCCc1oc2ccccc2c1C(=O)c1ccc(O)cc1 [(17), (2-butylbenzofuran-3-yl)(4-hydroxyphenyl)methanone]
hURAT1 inhibition compared with corresponding ethyl analog (hURAT1 (SLC22A12); butyl versus ethyl analog, ethyl analog ref 10): much weaker inhibitor than the corresponding ethyl analog

CCCCc1oc2ccccc2c1C(=O)c1cc(Br)c(O)c(Br)c1 [(18), (2-butylbenzofuran-3-yl)(3,5-dibromo-4-hydroxyphenyl)methanone]
IC50 (hURAT1 (SLC22A12)): 1930 ± 90 nM

CCc1oc2ccccc2c1C(=O)c1cc(Cl)c(O)c(Cl)c1 [(19), (3,5-dichloro-4-hydroxyphenyl)(2-ethylbenzofuran-3-yl)methanone]
fold weaker hURAT1 inhibitor than (1) (hURAT1 (SLC22A12)): ~ 15 fold | IC50 (hURAT1 (SLC22A12)): 399 ± 56 nM

CCc1cc2cc(OC)cc(C(=O)c3ccc(OC)cc3)c2o1 [(20), (2-ethyl-5-methoxybenzofuran-7-yl)(4-methoxyphenyl)methanone]
microsomal CLint at 1 µM [2]: 704 ± 12.7 µL/min/mg

CCc1cc2cc(OC)cc(C(=O)c3cc(Br)c(O)c(Br)c3)c2o1 [(21), (3,5-dibromo-4-hydroxyphenyl)(2-ethyl-5-methoxybenzofuran-7-yl)methanone]
microsomal CLint at 1 µM [2]: 210 ± 5.9 µL/min/mg

CCc1cc2cc(O)cc(C(=O)c3cc(Br)c(O)c(Br)c3)c2o1 [(22), (3,5-dibromo-4-hydroxyphenyl)(2-ethyl-5-hydroxybenzofuran-7-yl)methanone]
microsomal CLint at 1 µM [2]: 454 ± 18.2 µL/min/mg

CCc1cc2c(C(=O)c3ccc(OC)cc3)cc(Br)c(O)c2o1 [(23), (6-bromo-2-ethyl-7-hydroxybenzofuran-4-yl)(4-methoxyphenyl)methanone]
microsomal CLint at 1 µM [2]: 121 ± 12.2 µL/min/mg

CCc1cc2c(C(=O)c3cc(Br)c(O)c(Br)c3)c(OC)ccc2o1 [(24), (3,5-dibromo-4-hydroxyphenyl)(2-ethyl-5-methoxybenzofuran-4-yl)methanone]
microsomal CLint at 1 µM [2]: 323 ± 10.8 µL/min/mg

CCc1cc2c(C(=O)c3cc(Br)c(O)c(Br)c3)c(O)ccc2o1 [(25), (3,5-dibromo-4-hydroxyphenyl)(2-ethyl-5-hydroxybenzofuran-4-yl)methanone]
microsomal CLint at 1 µM [2]: 94.8 ± 5.1 µL/min/mg

CCc1cc2c(C(=O)c3cc(Br)c(O)c(Br)c3)cc(Br)c(O)c2o1 [(26), (6-bromo-2-ethyl-7-hydroxybenzofuran-4-yl)(3,5-dibromo-4-hydroxyphenyl)methanone]
microsomal CLint at 1 µM [2]: 34.3 ± 1.2 µL/min/mg

O=c1[nH]c(=O)c2[nH]c(=O)[nH]c2[nH]1 [uric acid]
pKa ([1]; in urine): 5.4

Reference: paper PMC3496402 (Drug Design, Development and Therapy, 2012)
